The subject of the assay is BDF1 mice, P388 leukemia ip, median survival T/C. Description: NCI In Vivo Anticancer Drug Screen. Data for tumor model P388 Leukemia (intraperitoneal) in B6D2F1 (BDF1) mice. To be noted: endpoint: median survival time, higher = longer survival. The essentials: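 Compound-treated tumour-bearing mice were compared with vehicle-treated controls. Survival was recorded, and the value is the treated-group measurement divided by the control-group measurement (T/C).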

Setting [1] is: dose: 25.0 mg/kg/injection, schedule: Q01DX009 (ip), vehicle: saline with Tween-80.
[2] abbreviates: dose: 25.0 mg/kg/injection, schedule: Q04DX003 (ip), vehicle: saline with Tween-80.
The mark [3] stands for this setting: dose: 50.0 mg/kg/injection, schedule: Q01DX009 (ip), vehicle: saline with Tween-80.
Setting [4] is: dose: 50.0 mg/kg/injection, schedule: Q04DX003 (ip), vehicle: saline with Tween-80.
Where [5] appears, read: dose: 100.0 mg/kg/injection, schedule: Q01DX009 (ip), vehicle: saline with Tween-80.
The mark [6] stands for this setting: dose: 100.0 mg/kg/injection, schedule: Q04DX003 (ip), vehicle: saline with Tween-80.
Where [7] appears, read: dose: 200.0 mg/kg/injection, schedule: Q01DX009 (ip), vehicle: saline with Tween-80.
[8] abbreviates: dose: 200.0 mg/kg/injection, schedule: Q04DX003 (ip), vehicle: saline with Tween-80.
The mark [9] stands for this setting: dose: 12.5 mg/kg/injection, schedule: Q01DX009 (ip), vehicle: saline with Tween-80.
Where [10] appears, read: dose: 400.0 mg/kg/injection, schedule: Q01DX009 (ip), vehicle: saline with Tween-80.
[11] abbreviates: dose: 400.0 mg/kg/injection, schedule: Q04DX003 (ip), vehicle: saline with Tween-80.

Several values for one entry are separate records, joined by “and”; a condition that tells them apart may be missing. Equal entries are not always repeated. Toxic doses and inconclusive results are not listed.

T/C data for 15 molecules are collected here from PubChem BioAssay AID328 (DTP/NCI, 2004).

On to `c1ccc([P+](C[P+](c2ccccc2)(c2ccccc2)c2ccccc2)(c2ccccc2)c2ccccc2)cc1`, for which the T/C is, setting by setting: (dose: 0.39 mg/kg/injection, schedule: Q01DX009 (ip), vehicle: Klucel (hydroxypropylcellulose) (HPC)) 109 % of control; (dose: 0.78 mg/kg/injection, schedule: Q01DX009 (ip), vehicle: Klucel (hydroxypropylcellulose) (HPC)) 109 % of control; (dose: 1.56 mg/kg/injection, schedule: Q01DX009 (ip), vehicle: Klucel (hydroxypropylcellulose) (HPC)) 118 % of control; (dose: 1.72 mg/kg/injection, schedule: Q04DX003 (ip), vehicle: Klucel (hydroxypropylcellulose) (HPC)) 109 % of control; (dose: 2.3 mg/kg/injection, schedule: Q01DX009 (ip), vehicle: Klucel (hydroxypropylcellulose) (HPC)) 115 % of control; (dose: 3.45 mg/kg/injection, schedule: Q04DX003 (ip), vehicle: Klucel (hydroxypropylcellulose) (HPC)) 122 % of control. The T/C (dose: 6.9 mg/kg/injection, schedule: Q04DX003 (ip), vehicle: Klucel (hydroxypropylcellulose) (HPC)) was 90 % of control.

Regarding `O=I(=O)c1ccccc1`, the T/C by setting is: (dose: 12.5 mg/kg/injection, schedule: Q01DX009 (ip), vehicle: Klucel (hydroxypropylcellulose) (HPC)) 91 % of control; (dose: 17.0 mg/kg/injection, schedule: Q01DX009 (ip), vehicle: saline with Tween-80) 92 % of control; (dose: 25.0 mg/kg/injection, schedule: Q01DX009 (ip), vehicle: Klucel (hydroxypropylcellulose) (HPC)) 86 % of control and 100 % of control; under setting [1], 96 % of control; under setting [2], 100 % of control; (dose: 37.0 mg/kg/injection, schedule: Q01DX009 (ip), vehicle: saline with Tween-80) 96 % of control. Further, the T/C (dose: 50.0 mg/kg/injection, schedule: Q01DX009 (ip), vehicle: Klucel (hydroxypropylcellulose) (HPC)) is 86 % of control and 90 % of control and 118 % of control; the T/C under setting [3] was 115 % of control; the T/C under setting [4] is 90 % of control; the T/C (dose: 100.0 mg/kg/injection, schedule: Q01DX009 (ip), vehicle: Klucel (hydroxypropylcellulose) (HPC)) was 104 % of control; the T/C under setting [5] is 120 % of control; the T/C under setting [6] was 90 % of control.

With `CC1=CC(=O)NP(=O)(Oc2ccc3ccccc3c2)N1` (centres undefined), the T/C is 106 % of control (dose: 25.0 mg/kg/injection, schedule: Q04DX003 (ip), vehicle: saline + alcohol); 98 % of control (dose: 50.0 mg/kg/injection, schedule: Q04DX003 (ip), vehicle: saline + alcohol); 100 % of control (dose: 100.0 mg/kg/injection, schedule: Q04DX003 (ip), vehicle: saline + alcohol); 94 % of control (dose: 200.0 mg/kg/injection, schedule: Q04DX003 (ip), vehicle: saline + alcohol); 95 % of control (dose: 400.0 mg/kg/injection, schedule: Q04DX003 (ip), vehicle: saline + alcohol).

`C[n+]1ccc(Nc2ccc(NC(=O)c3ccc(Nc4cc[n+](C)c5ccc(N)cc45)cc3)cc2)cc1`: the T/C by setting is: (dose: 1.0 mg/kg/injection, schedule: Q01DX009 (ip), vehicle: Klucel (hydroxypropylcellulose) (HPC)) 211 % of control; (dose: 2.0 mg/kg/injection, schedule: Q01DX009 (ip), vehicle: Klucel (hydroxypropylcellulose) (HPC)) 170 % of control and 195 % of control; (dose: 3.24 mg/kg/injection, schedule: Q04DX003 (ip), vehicle: water) 173 % of control; (dose: 4.0 mg/kg/injection, schedule: Q01DX009 (ip), vehicle: Klucel (hydroxypropylcellulose) (HPC)) 243 % of control and 250 % of control; (dose: 4.32 mg/kg/injection, schedule: Q01DX009 (ip), vehicle: water) 254 % of control; (dose: 5.4 mg/kg/injection, schedule: Q04DX003 (ip), vehicle: water) 180 % of control. Also, the T/C is 261 % of control (dose: 7.2 mg/kg/injection, schedule: Q01DX009 (ip), vehicle: water); 244 % of control and 250 % of control (dose: 8.0 mg/kg/injection, schedule: Q01DX009 (ip), vehicle: Klucel (hydroxypropylcellulose) (HPC)); 220 % of control (dose: 9.0 mg/kg/injection, schedule: Q04DX003 (ip), vehicle: water); 103 % of control (dose: 15.0 mg/kg/injection, schedule: Q04DX003 (ip), vehicle: water).

Regarding `CCNC(C)(C)C(SS(=O)(=O)O)c1ccc(Cl)s1` (centres undefined), the T/C was 103 % of control under setting [1]; 95 % of control and 121 % of control under setting [3]; 103 % of control (dose: 75.0 mg/kg/injection, schedule: Q01DX009 (ip), vehicle: saline with Tween-80); 102 % of control under setting [5]; 95 % of control under setting [6]; 102 % of control under setting [7]. Further, the T/C runs as follows: under setting [8], 94 % of control; (dose: 300.0 mg/kg/injection, schedule: Q01DX009 (ip), vehicle: saline with Tween-80) 101 % of control.

As to `CCCCCCCCCCCCCCCC(=O)OCCCCCCCCCCCCC`, the T/C is 100 % of control under setting [2], 100 % of control under setting [4] and 105 % of control under setting [6].

For `CCCCNC(C)(C)C(SC(C)=O)c1ccc(Cl)cc1` (centres undefined), the T/C under setting [6] is 108 % of control and the T/C under setting [8] is 112 % of control.

With `CCCCCC#CC1OC1(C)C` (centres undefined), the T/C under setting [9] is 97 % of control and 100 % of control; the T/C under setting [1] is 101 % of control and 103 % of control; the T/C under setting [3] is 108 % of control and 116 % of control; the T/C under setting [5] was 108 % of control and 117 % of control and 121 % of control.

For the molecule `CCOC(=O)c1cc2sccc2[nH]1`, the T/C runs as follows: under setting [5], 103 % of control; under setting [6], 104 % of control; under setting [7], 100 % of control; under setting [8], 109 % of control; under setting [10], 115 % of control; under setting [11], 113 % of control.

Consider `NCCCCNC(=O)c1csc(-c2csc(CCNC(=O)c3ccccc3)n2)n1`, for which the T/C runs as follows: (dose: 8.0 mg/kg/injection, schedule: Q01DX009 (ip), vehicle: saline) 100 % of control; (dose: 16.0 mg/kg/injection, schedule: Q01DX009 (ip), vehicle: saline) 100 % of control; (dose: 32.0 mg/kg/injection, schedule: Q01DX009 (ip), vehicle: saline) 100 % of control; (dose: 64.0 mg/kg/injection, schedule: Q01DX009 (ip), vehicle: saline) 110 % of control.

Turning to `ClCCN=Cc1ccc(Cl)cc1`, the T/C reads like this: under setting [5], 116 % of control; under setting [7], 111 % of control; under setting [10], 120 % of control.

Consider `OCCN(CCO)c1cc(OCc2ccccc2)cc(OCc2ccccc2)c1`, for which the T/C by setting is: (dose: 6.25 mg/kg/injection, schedule: Q01DX009 (ip), vehicle: water) 103 % of control; (dose: 12.5 mg/kg/injection, schedule: Q01DX009 (ip), vehicle: water) 99 % of control; (dose: 25.0 mg/kg/injection, schedule: Q01DX009 (ip), vehicle: water) 91 % of control and 103 % of control; (dose: 50.0 mg/kg/injection, schedule: Q01DX009 (ip), vehicle: water) 100 % of control; (dose: 50.0 mg/kg/injection, schedule: Q04DX003 (ip), vehicle: water) 100 % of control; (dose: 100.0 mg/kg/injection, schedule: Q04DX003 (ip), vehicle: water) 100 % of control. Moreover, the T/C (dose: 200.0 mg/kg/injection, schedule: Q04DX003 (ip), vehicle: water) is 95 % of control and the T/C (dose: 400.0 mg/kg/injection, schedule: Q04DX003 (ip), vehicle: water) was 100 % of control.

Consider `CC(Nc1ccccc1)(C(N)=O)c1ccccc1` (centres undefined), for which the T/C runs as follows: (dose: 25.0 mg/kg/injection, schedule: Q01DX001 (ip), vehicle: saline with Tween-80) 90 % of control; (dose: 50.0 mg/kg/injection, schedule: Q01DX001 (ip), vehicle: saline with Tween-80) 104 % of control; (dose: 100.0 mg/kg/injection, schedule: Q01DX001 (ip), vehicle: saline with Tween-80) 95 % of control; (dose: 200.0 mg/kg/injection, schedule: Q01DX001 (ip), vehicle: saline with Tween-80) 90 % of control; (dose: 400.0 mg/kg/injection, schedule: Q01DX001 (ip), vehicle: saline with Tween-80) 95 % of control.

As for `CN(C)c1ccc(-c2cc(C(=O)O)c3cc4ccccc4cc3n2)cc1`, the T/C runs as follows: under setting [9], 97 % of control; under setting [1], 97 % of control; under setting [3], 94 % of control and 102 % of control; under setting [5], 98 % of control and 104 % of control.

`CCOC(=O)N1Cc2cc3cc(OC)c(OC)cc3nc2C1`: the T/C is 105 % of control under setting [6], 90 % of control under setting [8] and 105 % of control under setting [11].
